According to US12129504B2, “Caproate-producing bacterium with multiple substrate utilization capabilities and its applications” (Jiangnan University, priority 2021, dated 2024):

How the values were obtained:
[1] = tested on: Oscillospiraceae sp. LBM10036; experiment: Tolerance of the strain to toxicity of caproic acid: growth (OD600) in liquid mediums with different initial concentrations of caproic acid; assay type: cell-based
Text: A brewing environment of Strong aroma-type Baijiu is characterized by a low pH, and the lower the pH, the higher the content of free caproic acid in a system. Free caproic acid can cause toxicity to bacterial cells, therefore, the stronger the tolerance of bacterial cells to the toxicity of caproic acid, the more favorable it is for the survival of the bacterial cells in a system. The growth of the Oscillospiraceae sp. LBM10036 was tracked and measured by designing liquid mediums with different initial concentrations of caproic acid.
The medium contains (calculated in g/L): glucose 20.0, yeast powder 10.0, peptone 10.0, dipotassium hydrogen phosphate 1.0, potassium dihydrogen phosphate 0.5, ammonium sulfate 2.0, magnesium sulfate 0.1, and a cosubstrate 5.0, as well as a trace element nutrient solution 0.15-1.0 (mL/L). The cosubstrate is one or both of acetate and butyrate. The trace element nutrient solution contains (calculated in g/L): calcium chloride 10, cobalt chloride 10, zinc sulfate 10, manganese sulfate 10, and ferrous sulfate heptahydrate 15. The pH of the medium is 5.5, and the medium was sterilized at 115° C. for 30 min.
The dissolved medium was divided into 5 blue cap bottles (100 mL), each blue cap bottle containing 100 mL of medium. Before sterilization, the initial concentrations of caproic acid in the mediums were adjusted to 0 g/L, 1 g/L, 2 g/L, 3 g/L, and 4 g/L using a caproic acid standard. At this point, the initial concentrations of free caproic acid in the mediums were 0 g/L, 0.19 g/L, 0.37 g/L, 0.56 g/L, and 0.75 g/L, respectively. The mediums were sterilized at 115° C. for 30 min. After sterilization, the medium of each initial concentration gradient of caproic acid was divided into 3 parts, each part containing 30 mL in a 50 mL centrifuge tube. The residual mediums were taken out of an anaerobic incubator for re-determining the pH and initial concentrations of total caproic acid, and calculating whether the actual concentrations of free caproic acid meet the experimental design.
(1) An Oscillospiraceae sp. LBM10036 frozen glycerol tube was taken out from a −80° C. refrigerator, activated for cultivation for the first generation at 37° C. in the modified Clostridium growth medium prepared in (1) step 1 until the OD600 was 1.5-2.0 to obtain a first generation seed solution, and then the first generation seed solution was transferred to a fresh modified Clostridium growth medium at an inoculum concentration of 5% (v/v) and activated for the second generation cultivation at 37° C. for 12-18 h until the OD600 was 1.5-2.0 to obtain a second generation seed solution.
(2) 100 mL of the modified Clostridium growth medium described in step (1) was inoculated with the second generation seed solution obtained in step (1) at an inoculum concentration of 5% (v/v) and cultivated until the OD value was 1.5-2.0, to obtain a culture solution.
(3) The mediums with different initial concentration gradients of caproic acid prepared in (2) of step 1 were inoculated with the prepared culture solution at an inoculum concentration of 5% (v/v). The medium of each initial concentration gradient of caproic acid had 3 replicates, and sampled from 0 to 72 h at an interval of 12 h. The maximum specific growth rates under different initial concentration gradients of caproic acid were plotted (as shown in FIG. 4).

[2] = cited from earlier work

CCCCCC(=O)O [caproic acid]
growth of Oscillospiraceae sp. ([1]; caproic acid 4 g/L (free caproic acid 0.75 g/L)): significantly inhibited
concentration of free caproic acid at the maximum tolerable initial concentration ([1]; free caproic acid calculated from pH 5.5 and pKa 4.86): 0.56 g/L
OD600 ([1]; initial caproic acid 1 g/L, 0 h, medium pH 5.5): 0.26 ± 0.00
OD600 ([1]; initial caproic acid 1 g/L, 12 h, medium pH 5.5): 0.53 ± 0.02
OD600 ([1]; initial caproic acid 1 g/L, 24 h, medium pH 5.5): 1.96 ± 0.17
OD600 ([1]; initial caproic acid 1 g/L, 48 h, medium pH 5.5): 2.39 ± 0.20
OD600 ([1]; initial caproic acid 1 g/L, 72 h, medium pH 5.5): 2.25 ± 0.32
OD600 ([1]; initial caproic acid 2 g/L, 0 h, medium pH 5.5): 0.27 ± 0.01
OD600 ([1]; initial caproic acid 2 g/L, 12 h, medium pH 5.5): 0.30 ± 0.02
OD600 ([1]; initial caproic acid 2 g/L, 24 h, medium pH 5.5): 1.06 ± 0.37
OD600 ([1]; initial caproic acid 2 g/L, 48 h, medium pH 5.5): 2.00 ± 0.10
OD600 ([1]; initial caproic acid 2 g/L, 72 h, medium pH 5.5): 1.72 ± 0.17
OD600 ([1]; initial caproic acid 3 g/L, 0 h, medium pH 5.5): 0.26 ± 0.01
OD600 ([1]; initial caproic acid 3 g/L, 12 h, medium pH 5.5): 0.69 ± 0.06
OD600 ([1]; initial caproic acid 3 g/L, 24 h, medium pH 5.5): 0.88 ± 0.07
OD600 ([1]; initial caproic acid 3 g/L, 48 h, medium pH 5.5): 1.46 ± 0.07
OD600 ([1]; initial caproic acid 3 g/L, 72 h, medium pH 5.5): 1.44 ± 0.05
OD600 ([1]; initial caproic acid 4 g/L, 0 h, medium pH 5.5): 0.23 ± 0.01
OD600 ([1]; initial caproic acid 4 g/L, 12 h, medium pH 5.5): 0.22 ± 0.01
OD600 ([1]; initial caproic acid 4 g/L, 24 h, medium pH 5.5): 0.20 ± 0.01
OD600 ([1]; initial caproic acid 4 g/L, 48 h, medium pH 5.5): 0.21 ± 0.04
OD600 ([1]; initial caproic acid 4 g/L, 72 h, medium pH 5.5): 0.20 ± 0.02
maximum tolerable initial concentration of caproic acid ([1]; total caproic acid, medium pH 5.5): 3 g/L
pKa [2]: 4.86
